Publication PMC8217170, “Phase Ib dose-escalation study of the hypoxia-modifier Myo-inositol trispyrophosphate in patients with hepatopancreatobiliary tumors” (Nature Communications, 2021)

Conditions: in vivo

## O=P1(O)OC2C3OP(=O)(O)OP(=O)(O)OC3C3OP(=O)(O)OP(=O)(O)OC3C2OP(=O)(O)O1 (centres unmarked) [ITPP, Myo-inositol trispyrophosphate]
human
  Time of peak plasma levels (Cmax) after infusion start: 6 h
  ITPP baseline levels at infusion start (Cmin): below the detection threshold
